Experimental data taken from ChEMBL document CHEMBL1132913, “Conformationally-restricted ligands for the histamine H1 receptor” (Bioorg Med Chem Lett, 2000).
The source made the active and inactive calls. The rule behind the calls is not given here.

Columns and labels:
Mus musculus [1] = assay: In vivo activity of compound at 10 mg/kg in 48/80 challenge expressed as number of mice surviving for more than 240 min; 0/2; format: functional; conditions: 4 h
Histamine H1 receptor [2] = target: T1, Histamine H1 receptor (Cavia porcellus, UniProt P31389); assay: In vitro antagonistic activity at the Histamine H1 receptor in guinea pig ileum; format: functional, tissue-based
[3] = Partition coefficient (logP); format: physicochemical; conditions: octanol/water
Mus musculus [4] = assay: In vivo activity of compound at 40 mg/kg in 48/80 challenge expressed as number of mice surviving for more than 240 min; 0/2; format: functional; conditions: 4 h
Mus musculus [5] = species on record: Mus musculus; assay: Ability of compound to protect mice against a lethal dose of 48/80; No activity; format: functional, organism-based
Mus musculus [6] = assay: In vivo activity of compound at 40 mg/kg in 48/80 challenge expressed as number of mice surviving for more than 240 min; 1/2; format: functional; conditions: 4 h
Mus musculus [7] = species on record: Mus musculus; assay: Effect of compound in the […] challenge in mice; No activity; format: functional, organism-based
Mus musculus [8] = assay: Effective dose (in vivo) by administering the compound in mice was determined; format: functional
Mus musculus [9] = species on record: Mus musculus; assay: Effective dose of compound in the […] challenge in mice.; format: functional
Histamine H1 receptor [10] = target: T1, Histamine H1 receptor; assay: In vitro antagonistic activity at the Histamine H1 receptor in guinea pig ileum; No inhibition; format: functional, tissue-based
Mus musculus [11] = assay: In vivo activity of compound at 40 mg/kg in 48/80 challenge expressed as number of mice surviving for more than 240 min; 2/2; format: functional; conditions: 4 h
Mus musculus [12] = assay: In vivo activity of compound at 10 mg/kg in 48/80 challenge expressed as number of mice surviving for more than 240 min; 1/2; format: functional; conditions: 4 h
Mus musculus [13] = species on record: Mus musculus; assay: Compound was tested for protection against 48/80 challenge in mice; No activity with both mice dying at 36 min; format: functional, organism-based

T1 sequence (P31389 whole entry): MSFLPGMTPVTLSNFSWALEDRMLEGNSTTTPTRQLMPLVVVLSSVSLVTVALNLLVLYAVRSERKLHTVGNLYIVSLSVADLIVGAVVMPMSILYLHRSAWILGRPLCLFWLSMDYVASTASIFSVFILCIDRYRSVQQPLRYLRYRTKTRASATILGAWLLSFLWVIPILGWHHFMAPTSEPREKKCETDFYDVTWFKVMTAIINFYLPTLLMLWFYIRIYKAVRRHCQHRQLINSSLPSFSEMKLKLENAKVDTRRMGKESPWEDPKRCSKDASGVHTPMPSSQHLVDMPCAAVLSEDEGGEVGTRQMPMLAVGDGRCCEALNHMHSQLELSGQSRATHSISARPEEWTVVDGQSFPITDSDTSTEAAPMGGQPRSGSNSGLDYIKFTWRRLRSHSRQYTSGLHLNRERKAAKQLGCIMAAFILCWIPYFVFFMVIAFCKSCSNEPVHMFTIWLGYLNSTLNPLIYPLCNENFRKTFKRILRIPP

| Structure (SMILES) | survival at 10 mg/kg (Mus musculus [1]) [%] | IC50 (Histamine H1 receptor [2]) [nM] | survival at 40 mg/kg (Mus musculus [4]) [%] | logP ([3]; read-out: logP) | further results |
| --- | --- | --- | --- | --- | --- |
| c1ccc(CN2CCC3C(=C(c4ccccc4)c4ccccc43)C2)cc1 (centres undefined) | 0 | 10.8 | 0 |  | logP [3]: 7.03 |
| CCc1ccc(C2C3=C(CCN(C)C3)c3ccc(CC)cc32)cc1 (centres undefined) | 0 |  | 0 |  |  |
| CN1CCC2=C(C1)C(c1ccccc1)c1ccccc12 (centres undefined) [PHENINDAMINE] |  | 36 |  |  |  |
| CCN1CC[C@@](O)(c2ccccc2)[C@H](C(=O)c2ccccc2)C1 |  | 23 |  |  | Activity (Mus musculus [5]): inactive |
| CN1CC[C@@](O)(c2ccccc2)[C@H](C(=O)c2ccccc2)C1 |  | 26 |  |  | Activity (Mus musculus [5]): inactive |
| CCN1CCC2=C(C1)C(c1ccccc1)c1ccccc12 (centres undefined) | 0 | 17 |  | 4.92 | survival at 40 mg/kg (Mus musculus [6]): 50% |
| CCc1ccc([C@@H]2c3cc(CC)ccc3[C@@H]3CCN(C)C[C@H]23)cc1 |  |  |  |  | ED50 (Mus musculus [7]): inactive |
| c1ccc(CCN2CCC3=C(C2)C(c2ccccc2)c2ccccc23)cc1 (centres undefined) | 0 |  | 0 | 6.59 |  |
| CN1CC=C2C(=C(c3ccccc3)c3ccccc32)C1 | 0 | 220 | 0 | 4.94 |  |
| C1=C2C(=C(c3ccccc3)c3ccccc32)CNC1 |  | 53 | 50 | 4.41 | survival at 40 mg/kg (Mus musculus [6]): 50%; ED50 (Mus musculus [8]): 40 mg/kg |
| CN1CC[C@H]2c3ccccc3C(c3ccccc3)[C@H]2C1 (single isomer, unassigned) |  |  |  |  | ED50 (Mus musculus [9]): 40 mg/kg |
| c1ccc(CCN2CCC3C(=C(c4ccccc4)c4ccccc43)C2)cc1 (centres undefined) | 0 |  |  | 7.43 | survival at 40 mg/kg (Mus musculus [6]): 50% |
| CCN1CC=C2C(=C(c3ccccc3)c3ccccc32)C1 |  |  |  |  | IC50 (Histamine H1 receptor [10]): Not Active |
| CCN1CCC2C(=C(c3ccccc3)c3ccccc32)C1 (centres undefined) |  |  |  | 5.76 | survival at 40 mg/kg (Mus musculus [11]): 100% |
| c1ccc(CN2CCC3=C(C2)C(c2ccccc2)c2ccccc23)cc1 (centres undefined) | 0 | 470 | 0 | 6.02 |  |
| CN1CCC2C(=C(c3ccccc3)c3ccccc32)C1 (centres undefined) |  | 28 |  | 5.23 | survival at 10 mg/kg (Mus musculus [12]): 50%; survival at 40 mg/kg (Mus musculus [11]): 100% |
| CN1CC[C@H]2c3ccccc3[C@@H](c3ccccc3)[C@H]2C1 |  |  |  |  | Activity (Mus musculus [13]): inactive |
